We go through 14 compounds from patent publication US8609674B2, “Potassium channel modulators” (AbbVie Inc., priority 2010, dated 2013).

Holding throughout (format): cell-based
Assay [1] deals with T1, human KCNQ2 and KCNQ3 subunits (KCNQ2/3 channels) (Homo sapiens, UniProt O43525+O43526).
T1 construct: expressed in transfected cells; host or cells: HEK293
The assay is described as follows: KCNQ2/3 thallium influx FLIPR assay (BTC-AM dye). The conditions noted are these: for EC50: HEK293 cells stably expressing human KCNQ2 and KCNQ3, Tl+ influx; for Emax: maximum response relative to 10 μM retigabine (=100%), read-out: KCNQ2/3 Max. %. On the procedure:
The following example describes the assay that may be used to identify compounds that activate KCNQ2/3 channels.
HEK293 cells stably expressing human KCNQ2 and KCNQ3 subunits were seeded in 96-well, black-walled, clear-bottomed, poly-D-lysine coated plates (BD Biosciences, Bedford, Mass.) at a density of 1×10^5 cells per well 24 hours before the assay. On the assay day, BTC-AM dye (Invitrogen, Carlsbad, Calif.) was loaded into the cells by replacing the cell culture medium with 55 μL/well of 3 μg/ml dye in Dulbecco's Phosphate Buffered Saline (DPBS) (Invitrogen). Dye loading was allowed to proceed for 2 hours at room temperature and then cells were washed twice with 50 μL/well of assay buffer (in mM: 10 HEPES pH 7.3, 5 glucose, 140 Na-gluconate, 2.5 K-gluconate, 3.6 Ca-gluconate, 2 MgSO4, 0.1 Ouabain) to remove unloaded dye. Cells were incubated in 50 μL of assay buffer before loading onto a FLIPR system (Molecular Devices, Sunnyvale, Calif.). Various concentrations of compounds to be assayed were added to the cells in 50 μL of assay buffer and incubated for 4 minutes. The fluorescence signal was initiated by adding 100 μL of assay buffer containing 6 mM TlNO3 and 10 mM K2SO4. Fluors were excited using the 488-nm line of an argon laser and emission was filtered using a 540±30 nm bandpass filter. Fluorescent signals were recorded for 3 minutes. Sums of the responses over basal responses were plotted versus concentrations of test compounds to obtain an EC50 value and the points fit with a nonlinear regression curve using GraphPad Prism software (GraphPad Software Inc., San Diego, Calif.). EC50 values were calculated from the resulting sigmoidal dose-response curves. The maximum response for each test compound was determined relative to the response produced by 10 μM retigabine. The maximum response of retigabine at 10 μM was set at 100%.

A further assay concerns the target T2, human KCNQ4 (Homo sapiens, UniProt P56696).
T2 construct: expressed in transfected cells; host or cells: HEK293
The assay is described as follows: KCNQ4 thallium influx FLIPR TETRA assay. The conditions noted are these: for EC50: HEK293 cells stably expressing human KCNQ4, Tl+ influx; for Emax: maximum response relative to 10 μM retigabine (=100%), read-out: KCNQ4 Max. %. On the procedure:
(§1) The following example describes the assay that may be used to identify compounds that activate KCNQ4 or KCNQ5 channels.
(§2) The assays were performed using a FLIPR^TETRA (Molecular Devices, Sunnyvale, Calif.) in 384-well format. HEK293 cells stably expressing human KCNQ4 or KCNQ5 were seeded in 384-well, black-walled, clear-bottomed, poly-D-lysine coated plates (Greiner Bio-One, Germany) at a density of 1.5×10^4 cells per well, 24 hours before the assay. On the assay day, BTC-AM dye was loaded into the cells by replacing the cell culture medium with 30 μL/well of 2.8 μM dye in DPBS. Dye loading was allowed to proceed for 2 hours at room temperature and then cells were washed once in 30 μL/well of assay buffer (in mM: 10 HEPES pH 7.3, 5 glucose, 140 Na-gluconate, 2.5 K-gluconate, 3.6 Ca-gluconate, 2 MgSO4, 0.1 Ouabain) to remove unloaded dye. Cells were incubated in 30 μL of assay buffer before loading onto a FLIPR^TETRA system. Compounds to be assayed were added to the cells as 4× of final concentration in 15 μL of assay buffer and incubated for 4 minutes at room temperature. The influx signal was initiated by adding 15 μL of assay buffer containing 4.2 mM TlNO3 and 7 mM K2SO4. Tl^+ influx signals were recorded for 3 minutes. Tl^+ influx signal was quantified as light unit changes after Tl^+ addition using the “SUM” statistic from the FLIPR^TETRA software. Sums of the responses over basal responses were plotted versus concentrations of test compounds to obtain an EC50 value and the points fit with a nonlinear regression curve using GraphPad Prism software (GraphPad Software Inc., San Diego, Calif.). EC50 values were calculated from the resulting sigmoidal dose-response curves. The maximum response for each test compound was determined relative to the response produced by 10 μM retigabine. The maximum response of retigabine at 10 μM was set at 100%.

A further assay addresses T3, human KCNQ5 (Homo sapiens, UniProt Q9NR82).
T3 construct: expressed in transfected cells; host or cells: HEK293
The assay is described as follows: KCNQ5 thallium influx FLIPR TETRA assay. The conditions noted are these: for EC50: HEK293 cells stably expressing human KCNQ5, Tl+ influx; for Emax: maximum response relative to 10 μM retigabine (=100%), read-out: KCNQ5 Max. %. The protocol: as §1, §2

Usually EC50 stands for the concentration that produces a half-maximal response. The low end stands for higher potency in that assay, the high end for lower potency in that assay. For the compound `CC(C)c1nc2ccccc2c(=O)n1NC(=O)CCSC[C@@H]1CC[C@H]2C[C@@H]1C2(C)C` [Example 11, 3-({[(1S,2R,5S)-6,6-dimethylbicyclo[3.1.1]hept-2-yl]methyl}sulfanyl)-N-[4-oxo-2-(propan-2-yl)quinazolin-3(4H)-yl]propanamide], the EC50 was 0.1 to 0.5 µM in assay [1], 1 to 10 µM on human KCNQ4 and more than 30 µM on human KCNQ5. The Emax came out at 123% in assay [1], 293% at human KCNQ4 and 714% on human KCNQ5.

Take `CC(C)c1nc2ccc(F)cc2c(=O)n1NC(=O)C[C@@H]1CC[C@H]2C[C@@H]1C2(C)C` [Example 13, 2-[(1S,2S,5S)-6,6-dimethylbicyclo[3.1.1]hept-2-yl]-N-[6-fluoro-4-oxo-2-(propan-2-yl)quinazolin-3(4H)-yl]acetamide]: the results for the EC50 (in assay [1]; on human KCNQ4; on human KCNQ5) were less than 0.1 µM, more than 30 µM and more than 30 µM, respectively. In addition, the results for the Emax (in assay [1]; at human KCNQ4; at human KCNQ5) were 73%, 8% and 21%, respectively.

For `CC1(C)[C@H]2CC[C@@H](CC(=O)Nn3c(C(F)(F)F)nc4ccccc4c3=O)[C@@H]1C2` [Example 7, 2-[(1S,2S,5S)-6,6-dimethylbicyclo[3.1.1]hept-2-yl]-N-[4-oxo-2-(trifluoromethyl)quinazolin-3(4H)-yl]acetamide], the concentration giving a half-maximal response (EC50) in assay [1] was 0.1 to 0.5 µM; on human KCNQ4 it was more than 30 µM; on human KCNQ5, more than 30 µM. Moreover, the Emax turned out to be 58% in assay [1], 6% on human KCNQ4 and 52% on human KCNQ5.

Turning to `CC(C)c1nc2ccccc2c(=O)n1NC(=O)CC1CC2CC1C2` (racemic) [Example 22, (±)-2-(bicyclo[2.1.1]hex-2-yl)-N-[4-oxo-2-(propan-2-yl)quinazolin-3(4H)-yl]acetamide], the EC50 is less than 0.1 µM in assay [1], 1 to 10 µM on human KCNQ4 and 1 to 10 µM at human KCNQ5. In addition, the Emax was 179% in assay [1], 255% at human KCNQ4 and 857% at human KCNQ5.

Turning to `CCN(CC)c1nc2ccccc2c(=O)n1NC(=O)C[C@@H]1CC[C@H]2C[C@@H]1C2(C)C` [Example 19, N-[2-(diethylamino)-4-oxoquinazolin-3(4H)-yl]-2-[(1S,2S,5S)-6,6-dimethylbicyclo[3.1.1]hept-2-yl]acetamide], the concentration giving a half-maximal response (EC50) in assay [1] was 0.1 to 0.5 µM; on human KCNQ4 it was more than 30 µM; at human KCNQ5, more than 30 µM. Also, the Emax in assay [1] was 28%; at human KCNQ4 it was 8%; at human KCNQ5 it was 5%.

Turning to `CC1(C)[C@H]2CC[C@@H](CC(=O)Nn3c(C4CC4)nc4cc(F)ccc4c3=O)[C@@H]1C2` [Example 3, N-(2-cyclopropyl-7-fluoro-4-oxoquinazolin-3(4H)-yl)-2-[(1S,2S,5S)-6,6-dimethylbicyclo[3.1.1]hept-2-yl]acetamide], the EC50 in assay [1] is less than 0.1 µM; at human KCNQ4, more than 30 µM; on human KCNQ5 it was more than 30 µM. The Emax in assay [1] was 99%; on human KCNQ4 it was -2%; on human KCNQ5, 36%.

Regarding `CC(C)c1nc2ccccc2c(=O)n1NC(=O)COCC[C@@H]1CC[C@H]2C[C@@H]1C2(C)C` [Example 10, 2-{2-[(1S,2S,5S)-6,6-dimethylbicyclo[3.1.1]hept-2-yl]ethoxy}-N-[4-oxo-2-(propan-2-yl)quinazolin-3(4H)-yl]acetamide], the EC50 in assay [1] is 1 to 10 µM; on human KCNQ4 it was more than 30 µM; on human KCNQ5, more than 30 µM. Also, the Emax was 121% in assay [1], 122% on human KCNQ4 and 335% at human KCNQ5.

In the case of `CC1(C)[C@H]2CC[C@@H](CC(=O)Nn3c(CC(F)(F)F)nc4ccccc4c3=O)[C@@H]1C2` [Example 14, 2-[(1S,2S,5S)-6,6-dimethylbicyclo[3.1.1]hept-2-yl]-N-[4-oxo-2-(2,2,2-trifluoroethyl)quinazolin-3(4H)-yl]acetamide], the results for the EC50 (in assay [1]; at human KCNQ4; on human KCNQ5) were less than 0.1 µM, more than 30 µM and more than 30 µM, respectively. Moreover, the Emax in assay [1] is 105%; at human KCNQ4 it was 27%; on human KCNQ5 it was -10%.

Turning to `CC(C)c1nc2ccccc2c(=O)n1NC(=O)C[C@H]1C[C@H]2C[C@@H](C1F)C2(C)C` (stereo partly drawn) [Example 23, 2-[(1R,3R,5S)-2-fluoro-6,6-dimethylbicyclo[3.1.1]hept-3-yl]-N-[4-oxo-2-(propan-2-yl)quinazolin-3(4H)-yl]acetamide], the EC50 (in assay [1]; at human KCNQ4; on human KCNQ5) was 0.1 to 0.5 µM throughout. Further, the Emax came out at 155% in assay [1], 229% at human KCNQ4 and 633% at human KCNQ5.

For the compound `CC1(C)[C@H]2CC[C@@H](CC(=O)Nn3c(C4CC4)nc4cc(C(F)(F)F)ccc4c3=O)[C@@H]1C2` [Example 4, N-[2-cyclopropyl-4-oxo-7-(trifluoromethyl)quinazolin-3(4H)-yl]-2-[(1S,2S,5S)-6,6-dimethylbicyclo[3.1.1]hept-2-yl]acetamide], the EC50 (in assay [1]; on human KCNQ4; on human KCNQ5) was more than 30 µM throughout. For the same compound, the Emax in assay [1] turned out to be 3%; at human KCNQ4, 1%; at human KCNQ5, 12%.

As to `CC(C)c1nc2ccccc2c(=O)n1NC(=O)COC[C@@H]1CC[C@H]2C[C@@H]1C2(C)C` [Example 8, 2-[(1S,2R,5S)-(6,6-dimethylbicyclo[3.1.1]hept-2-yl)methoxy]-N-[4-oxo-2-(propan-2-yl)quinazolin-3(4H)-yl]acetamide], the EC50 is 0.5 to 1 µM in assay [1], more than 30 µM at human KCNQ4 and more than 30 µM at human KCNQ5. The Emax turned out to be 132% in assay [1], 57% on human KCNQ4 and 52% at human KCNQ5.

Turning to `CC(C)c1nc2ccccc2c(=O)n1NC(=O)C[C@H]1CC[C@H]2C[C@@H]1C2(C)C` [Example 21, 2-[(1S,2R,5S)-6,6-dimethylbicyclo[3.1.1]hept-2-yl]-N-[4-oxo-2-(propan-2-yl)quinazolin-3(4H)-yl]acetamide], the results for the EC50 (in assay [1]; at human KCNQ4; on human KCNQ5) were 0.5 to 1 µM, 0.5 to 1 µM and more than 30 µM, respectively. The Emax turned out to be 121% in assay [1], 25% at human KCNQ4 and 14% at human KCNQ5.

With `CC(SC[C@@H]1CC[C@H]2C[C@@H]1C2(C)C)C(=O)Nn1c(C(C)C)nc2ccccc2c1=O` (stereo partly drawn) [Example 9, 2-({[(1S,2R,5S)-6,6-dimethylbicyclo[3.1.1]hept-2-yl]methyl}sulfanyl)-N-[4-oxo-2-(propan-2-yl)quinazolin-3(4H)-yl]propanamide], the EC50 was 0.1 to 0.5 µM in assay [1], more than 30 µM on human KCNQ4 and more than 30 µM at human KCNQ5. Also, the Emax was 49% in assay [1], 23% on human KCNQ4 and 49% on human KCNQ5.

For `Cc1nc2ccccc2c(=O)n1NC(=O)C[C@@H]1CC[C@H]2C[C@@H]1C2(C)C` [Example 17, 2-[(1S,2S,5S)-6,6-dimethylbicyclo[3.1.1]hept-2-yl]-N-(2-methyl-4-oxoquinazolin-3(4H)-yl)acetamide], the results for the EC50 (in assay [1]; at human KCNQ4; at human KCNQ5) were 1 to 10 µM, more than 30 µM and more than 30 µM, respectively. Also, the Emax turned out to be 97% in assay [1], 3% at human KCNQ4 and 14% at human KCNQ5.
